The subject of data set [1] is oral mucosa. Briefly: Local anaesthesia: pain response to probing oral mucosa with back of 27G dental needle, visual analogue scale. It counts as in vivo, human. Particulars: 3.0 mg particles via needleless syringe; probe of treated area 1 minute post delivery; untreated 55.6%, placebo 30.6%.
For data set [2] the following is noted: in vivo. The protocol:
In a second study, a single 3.0 mg dose of lignocaine HCL particles (as above) was delivered using a needleless syringe, and a single 0.2 mL dose of 2% lignocaine HCL was delivered via needle-syringe injection. Pain associated with the administration of each treatment was scored in all 14 subjects using a 100 mm visual analogue scale immediately after each treatment, wherein 100% indicates a painful treatment, and 0% indicates a pain-free treatment. The needleless syringe employed in the study was operated using 40 bar helium driving gas to expel anaesthetic particles from a flexible, eversible dome-shaped membrane comprised of a 400 μm, 6 mm polyurethane film.

The subject of data set [3] is oral mucosa. In words: Visual assessment of oral mucosa delivery sites for damage or irritation after needleless syringe delivery. Conditions: single 3 mg dose, particles 38-53 μm, 14 subjects, 24-48 hours after delivery. It counts as in vivo, human. The method, then: A randomized, double-blind, negatively controlled study was carried out in normal, healthy human subjects as follows. Initially, a single 3 mg dose of lignocaine HCL particles sized between 38 and 53 μm was delivered from a needleless syringe constructed in accordance with the invention. The lignocaine was delivered to the oral mucosa adjacent to the number 12 and 22 lateral incisors in 14 trial subjects. The delivery sites were then visually assessed for evidence of damage or irritation to the mucosal tissues.

Data set [4] is described as follows: Serum testosterone pharmacokinetics after subcutaneous or OralJect transmucosal delivery (radioimmunoassay). It is filed as in vivo, New Zealand White rabbit. Conditions: for Cmax: mean. The method, then: Testosterone (Sigma Chemicals) was milled and sieved into a particle size range (approximately 50-100 μm) suitable for transmucosal delivery from a needleless syringe using standard stainless steel mesh sieves. Female New Zealand White rabbit subjects weighing between 2.2-2.8 kg were used and allowed food and water ad libitum. The rabbits (n=8) were randomly assigned to one of two treatment groups. The first treatment group received testosterone (2.0 mg dose) as a suspension in 35% polyvinylpyrrolidone C-30 in water (6 mg/g testosterone concentration) via subcutaneous injection. The second treatment group received testosterone (2.0 mg dose of testosterone particles ranging from 53-75 μm) as two 1.0 mg transmucosal administrations from an OralJect™ needleless syringe device abutted against the cheek mucosa.
Whole blood (1.0 ml) was taken at times 0, 0.5, 1, 2, 4, 6, 8, 12, 24 and 48 hours, the serum aspirated and assayed for testosterone by radioimmunoassay (DPC). The OralJect™ device is a prototype device of the present invention that is actuated by helium at 40 bar.

For data set [5] the following is noted: oral administration, degraded by the liver; cited from earlier work.

The text below walks through data of patent US6592545B1, “Particle delivery” (PowderJect Research Limited, priority 1994, dated 2003).

The structures appear in SMILES notation. Counter-ions that a name gives are not always drawn.

Regarding `CCN(CC)CC(=O)Nc1c(C)cccc1C` [lignocaine HCL], in the data set with oral mucosa [1], the “mean pain response score to probe” value was found to be 15.0%. Besides, the “pain associated with administration, mean visual analogue score” value in data set [2] turned out to be 49.9%. In addition, in the data set with oral mucosa [3], the “tissue reaction at delivery sites” value is recorded as “no evidence of any tissue reaction”.
Take `C[C@]12CC[C@H]3[C@@H](CCC4=CC(=O)CC[C@@]43C)[C@@H]1CC[C@@H]2O` [testosterone, Testosterone]: the Cmax was 25.5 ± 3.5 nmol/I in data set [4] (OralJect transmucosal (cheek mucosa), 2 x 1.0 mg particles 53-75 μm, rabbit serum) and 34.8 ± 6.9 nmol/I in data set [4] (subcutaneous injection, 2.0 mg suspension in 35% polyvinylpyrrolidone C-30, rabbit serum). The “second minor peak of serum testosterone, time post administration” value in data set [4] (OralJect transmucosal, possible depot effect) stood at 12 h. Besides, the bioavailability – broadly, the share of a dose that reaches the circulation, judged against a reference dose that is usually intravenous – in data set [4] (female, New Zealand White, rabbit, serum, 2 mg, OralJect transmucosal, 2.0 mg, rabbit, read-out: % BA (% bioavailability)) is ~48.3%. Further, the time to peak (Tmax) (usually the time from dosing to the highest level) in data set [4] (female, New Zealand White, rabbit, serum, OralJect transmucosal, 2.0 mg, all animals) is 30 min. Besides, the Cmax range in data set [4] (subcutaneous injection, 2.0 mg, rabbit serum) was 26.9 − 55.2 nmol/I. The first pass degradation in data set [5] is recorded as 98%.
